Results: US20070015741A1, “Novel prodrugs of estradiol” (priority 2005, published 2007)

Test: Stability at 40° C./75% RH, prodrug assayed by HPLC for degradation to parent compound estradiol
Format: physicochemical
Settings: HPLC assay of prodrug
Method: The following is an example of stability for the preferred compound described previously. Stability was conducted at 40° C./75% RH, with the prodrug being assayed at specific time-points for degradation to the parent compound, estradiol. The time-points for stability were T=0 months, T=2 weeks, T=1 month, and T=3 months. The following outlines the conditions utilized for analysis of the prodrug. Analysis was conducted using High-Performance Liquid Chromatography (HPLC). The retention time for estradiol lactate acetate was approximately 9.0 minutes using these conditions. Conditions for HPLC analysis: [table]

## estradiol lactate-acetate
T=0 months
  Assay (%) T = 0: 94.45%
T=1 month
  Assay (%) T = 1: 92.77%
T=2 weeks
  Assay (%) T = 2 W: 93.47%
T=3 months
  Assay (%) T = 3: 94.3%
